Literature values, collected in patent US11453692B2, “Non-caloric sweeteners and methods for synthesizing” (Conagen Inc., priority 2014, dated 2022).

Conditions: sweetness relative to sucrose

Compound	times sweeter than sucrose
Stevioside	100-150 times
C=C1C[C@@]23CCC4[C@](C)(C(=O)OC5OC(CO)C(O)C(O)C5O)CCC[C@@]4(C)[C@@H]2CC(OC2OC(CO)C(O)C(OC4OC(CO)C(O)C(O)C4O)C2OC2OC(C)C(O)C(O)C2O)C1C3 (some centres unmarked) [Rebaudioside C]	40-60 times
